The values that follow are results of earlier work, collected in patent publication US20120263806A1, “Uses of North American Ginseng Fractions for Treating Leukemia” (priority 2007, published 2012).

Molecules are shown by their SMILES.

The test system of data set [1] is telomerase activity of K562 cells. The following applies: at proper concentrations and exposure time.
For data set [2], the system named is Adriamycin (ADM)-resistant P388 leukemia cells (P388/ADM).
The test system of data set [3] is NF-kappaβ.

For `O=P1(N(CCCl)CCCl)NCCCO1` (stereo not shown) [CTX, cyclophosphamide], in data set [1], the “Telomerase activity of K562 cells” value was “completely inhibit”.
`CC(C)=CC/C=C(/C)[C@H]1CC[C@]2(C)[C@@H]1[C@H](O)C[C@@H]1[C@@]3(C)CC[C@H](O)C(C)(C)[C@@H]3[C@@H](O)C[C@]12C` [Quasipanaxatriol]: in data set [2], the “Cytotoxicity of the anti-cancer drugs (DAU, VBL) in P388/ADM cells” value (from here on “Cytotoxicity … in P388/ADM cells”) is on record as “greatly enhanced”. The “Resistance indices (ratios of IC50 values for P388/ADM and P388 parental cells) for DAU and VBL” value in data set [2] (50 μM) is recorded as “decreased significantly”.
For the molecule `CC(C)=CCC[C@](C)(O[C@@H]1O[C@H](CO)[C@@H](O)[C@H](O)[C@H]1O)[C@H]1CC[C@]2(C)[C@@H]1[C@H](O)C[C@@H]1[C@@]3(C)CC[C@H](O)C(C)(C)[C@@H]3CC[C@]12C` [compound K], the “Cytotoxicity … in P388/ADM cells” value in data set [2] is “greatly enhanced”.
Take `CC(C)=CCC[C@](C)(O)[C@H]1CC[C@]2(C)[C@@H]1[C@H](O)C[C@@H]1[C@@]3(C)CC[C@H](O[C@@H]4O[C@H](CO)[C@@H](O)[C@H](O)[C@H]4O)C(C)(C)[C@@H]3CC[C@]12C` [ginsenoside Rh2]: the “Cytotoxicity … in P388/ADM cells” value in data set [2] is recorded as “greatly enhanced”.
With `CC(C)=CCC[C@](C)(O)[C@H]1CC[C@]2(C)[C@@H]1[C@H](O)C[C@@H]1[C@@]3(C)CC[C@H](O)C(C)(C)[C@@H]3[C@@H](O)C[C@]12C` [20(8) protopanaxatriol], the “Cytotoxicity … in P388/ADM cells” value in data set [2] is listed as “greatly enhanced”.
As to `CC(C)=CCC[C@](C)(O)[C@H]1CC[C@]2(C)[C@@H]1[C@H](O)C[C@@H]1[C@@]3(C)CC[C@H](O[C@@H]4O[C@H](CO)[C@@H](O)[C@H](O)[C@H]4O[C@@H]4O[C@H](CO)[C@@H](O)[C@H](O)[C@H]4O)C(C)(C)[C@@H]3CC[C@]12C` [Rg(3)], the “TPA-induced activation of NF-kappaβ in HL-60 cells” value in data set [3] is listed as “inhibited”.
